Assay results as given in patent US20210205292A1, “INHIBITORS OF CREB-CBP INTERACTION FOR TREATMENT OF LEUKEMIA” (The Board of Trustees of the Leland Stanford Junior …, priority 2016, published 2021).

What was measured:
HL-60 AML cells = test: HL-60 AML xenograft in NSG mice; assay type: in vivo; conditions: for GFP+ cells in bone marrow / GFP+ cells in spleen / spleen weight: endpoint
Description: For AML xenograft mouse experiments, HL-60 cells (2×10^6) expressing firefly luciferase and GFP, or cryopreserved human AML patient cells (5×10^6), were injected through the tail vein into NOD.Cg-prkdc^scid Il2rg^tm1WjlSzJ (NSG) mice. Mice were then Compound A or 10% DMSO, injected intravenously by tail vein daily, until death or an endpoint was reached (moribundity) in accordance with the animal care institutional guidelines. All mouse experiments were subject to institutional approval by Stanford University Institutional Animal Care and Use Committee. Leukemia progression in mice at the indicated time points was monitored using an in vivo IVIS 100 bioluminescenceoptical imaging system (Xenogen Corporation). D-Luciferin (Promega) dissolved in sterile phosphate-buffered saline was injected intraperitoneally at a dose of 2.5 mg/kg, 15 minutes before measuring the luminescent signal. General anesthesia was induced with […] and continued during the procedure using a nose cone. Analysis was performed on Living Image In Vivo imaging software (Perkin-Elmer). Imaging was performed in collaboration with the Stanford Small Animal Imaging Facility. Bone marrow was aspirated from bone marrow cavities, and GFP+ cells were sorted using the FACSCalibur flow cytometer (BD Biosciences).
To examine the efficacy of CREB inhibition in an in vivo model of AML, 4-6 week old NOD.Cg-Prkdc^scid Il2rg^tm1WjlSzJ (NSG) mice were tail-vein injected with HL-60 AML cells (2×10^6) expressing Firefly luciferase and GFP. Groups of ten mice received 10% DMSO or 2.3 mg/kg Compound A intravenously (IV) once daily starting the day after cell injection (immediate treatment groups), or one of the same two treatments starting seven days after AML cell injection (delayed treatment groups). This dose of Compound A was selected, as it was the maximum deliverable IV injection concentration and volume in 10% DMSO solution per gram mouse body weight. […] The efficacy of Compound A was also assessed in a mouse xenograft model using primary AML cell sample (patient sample #186), using similar methods.

KG-1 cells = test: Cell cycle analysis of synchronized KG-1 cells by flow cytometry; assay type: cell-based
Description: KG-1 cells were synchronized at prometaphase using a modified thymidine plus nocodazole block (Whitfield et al. identification of genes periodically expressed in the human cell cycle and their expression in tumors. Mol Biol Cell. 2002; 13(6):1977-2000). Briefly, KG-1 cells were treated with 2 mM thymidine for 30 h, washed with PBS and released from G1/S block in fresh media for 4 h. The cells were incubated with 300 nM nocodazole (Sigma) for 13 h. Compound A or DMSO was added 3 hours before release. The synchronized cells were washed with PBS and released from the mitotic block in fresh media containing Compound A or DMSO. To analyze DNA content by flow cytometry, cells were harvested, fixed in 70% ice-cold ethanol for at least 1 hour at −20° C., and then incubated in propidium iodide (PI) staining buffer (PBS containing RNase A (50 μg/ml), 0.1% sodium citrate, and PI ([…])) for 30 minutes at RT. Cells were analyzed on a FACS Calibur flow cytoneter (BD Biosciences). Cell-cycle distribution was determined using FlowJo software (TreeStar).
CREB regulates the cell cycle by virtue of transcriptionally regulating the expression of key cell cycle genes. Thus, the effect of Compound A on this aspect of cell function was also examined. […]

[1] = tested on: Bcl-2, Mcl-1 expression in KG-1 cells; test: Western blot of anti-apoptotic proteins in KG-1 cells; assay type: cell-based
Description: Cells were lysed in RIPA buffer (Sigma), and the protein concentrations were determined by BCA assay (Thermo Scientific Pierce). Lysates were solubilized in 6×SDS PAGE buffer and […] of protein was loaded into 6-15% SDS PAGE gels, pheresed, and then transferred onto […] PVDF membrane (Millipore). Primary antibodies were applied at a dilution of 1:1000. Anti-Bcl-2, -Bax, -Mcl-1, -Bcl-XL, -Cyclin A and -Cyclin D1 antibodies were purchased from Cell Signaling Technologies. Anti-total acetylated histone and -ac-H3K27 were purchased from Santa Cruz Biotechnologies. Anti-actin and -CREB antibodies were purchased from upstate. Secondary antibodies were used at a 1:2500 dilution and purchased from Thermo Scientific/Pierce. WesternBright ECL was used for image acquisition on Image Lab software (Bio-Rad).
The balance between pro- and anti-apoptotic protein expression contributes to cell fate decisions. CREB regulates the expression of several anti-apoptotic proteins, including Bcl-2, Bcl-XL and Mcl-1. Bcl-2 expression in particular is known to mediate resistance to chemotherapy and influence clinical outcome in a number of cancer types, including AML. The ability of Compound A to cause apoptosis by disrupting the CREB-driven expression of these anti-apoptotic proteins was examined. In HL-60 cells treated with Compound A, apoptosis is induced in a dose- and time-dependent manner. […]

[2] = delayed treatment group (from day 7), 2.3 mg/kg IV once daily
[3] = immediate treatment group, 2.3 mg/kg IV once daily

Question: Which “mean weight of visceral tumors” value (HL-60 AML cells; Compound A-treated group) does the source give for `N#Cc1ccc(NC(=O)c2cc3ccccc3cc2O)cc1` [Compound A, N-(4-cyanophenyl)-3-hydroxy-2-naphthamide] here?
Answer: 0.027 ± 0.019 g

Question: And the “mice that developed visible visceral tumors (chloromas)” value (HL-60 AML cells; Compound A-treated group)?
Answer: 4 of 10

Question: And the liver weights (HL-60 AML cells; across groups)?
Answer: no differences in liver weights

Question: What about the “circulating leukemia cells (blood counts and smear)” value (HL-60 AML cells; at the time of sacrifice) of the same compound?
Answer: none of the Compound A-treated mice had detectable circulating leukemia cells

Question: And the “GFP+ cells in bone marrow” value (HL-60 AML cells; delayed group)?
Answer: 19.9±8.22%

Question: What about the “GFP+ cells in spleen” value (HL-60 AML cells; delayed group) of the same compound?
Answer: 4.1±1.44%

Question: What about the spleen weight (HL-60 AML cells; delayed group) of the same compound?
Answer: 50.6 ± 9.1 mg

Question: And the mean survival (HL-60 AML cells; [2])?
Answer: 26.4 days

Question: What about the median survival (HL-60 AML cells; [2]) of the same compound?
Answer: 24 days

Question: And the “average radiance (bioluminescence imaging)” value (HL-60 AML cells; delayed treatment, 2.3 mg/kg IV once daily, day 17)?
Answer: 2.8×10^5 p/sec/cm^2/sr

Question: What about the “GFP+ cells in bone marrow” value (HL-60 AML cells; immediate group) of the same compound?
Answer: 9.3±1.28%

Question: What about the “GFP+ cells in spleen” value (HL-60 AML cells; immediate group) of the same compound?
Answer: 0.64±0.27%

Question: What about the spleen weight (HL-60 AML cells; immediate group) of the same compound?
Answer: 43.3 ± 3.6 mg

Question: What about the mean survival (HL-60 AML cells; [3]) of the same compound?
Answer: 31.2 days

Question: And the median survival (HL-60 AML cells; [3])?
Answer: 31 days

Question: What about the “% cells in G1-phase” value (KG-1 cells; 4 hours following release) of the same compound?
Answer: 66.20±1.83%

Question: And the “% cells in G1-phase” value (KG-1 cells; 8 hours following release)?
Answer: 55.41±0.59%

Question: And the Bcl-2 expression [1]?
Answer: decreased Bcl-2 expression

Question: And the Mcl-1 expression [1]?
Answer: pronounced decrease in Mcl-1
